Reference: patent US20040248897A1, “Substituted N-acylaniline derivatives, the preparation thereof, and their use as pharmaceutical compositions” (Boehringer Ingelheim Pharma GmbH & Co. KG, priority 2001, published 2004)

Test system: human citrated plasma
Test: aPTT time prolongation in human citrated plasma (Biomatic B10 coagulometer)
Type: biochemical
Conditions: effective concentration at which the aPTT time is double compared with the control, 37° C.
Method: were investigated for their effect on prolonging the aPTT time as follows:
Materials: plasma, from human citrated blood;
PTT reagent, Boehringer Mannheim (524298);
Calcium solution (0.025 mol/L), Behring Werke, Marburg (ORH 056/57),
Diethylbarbiturate acetate buffer, Behring Werke, Marburg (ORWH 60/61); and
Biomatic B10 coagulometer, Desaga, Wiesloch.
The aPTT time was determined using a Biomatic B10 coagulometer made by Messrs. Desaga.
The test substance was placed in the test tubes prescribed by the manufacturer with 0.1 mL of human citrated plasma and 0.1 mL of PTT reagent. The mixture was incubated for three minutes at 37° C. The clotting reaction was started by the addition of 0.1 mL of calcium solution. The time is measured using the apparatus from the addition of the calcium solution up to the clotting of the mixture. Mixtures to which 0.1 mL of DBA buffer had been added were used as the controls.
According to the definition, a dosage-activity curve was used to determine the effective concentration of the substance at which the aPTT time is double compared with the control.

Compound | aPTT time (ED200 in μM) [µM]
Cc1cc(C(=O)N2CCCC2C)c(C)cc1NC(=O)CNc1ccc(C(=N)N)cc1 (centres unmarked) [A, 4-{N-[2,5-dimethyl-4-(2-methylpyrrolidinocarbonyl)phenylaminocarbonylmethyl]-amino}benzamidine] | 0.65
Cc1cc(C(=O)C(C)C)c(C)cc1NC(=O)CNc1ccc(C(=N)N)cc1 [B, 4-[N-(2,5-dimethyl-4-isopropylcarbonylphenylaminocarbonylmethyl)amino]benzamidine] | 0.67
